Results taken from patent US5385927A, “Hydroxy-3-[1-(1H-imidazol-4-yl)alkyl]-benzenecarboximidamides and their use in treating glaucoma” (priority 1993, dated 1995).
pIC50: −log10 of the molar value. Like-named read-outs stand apart in the source and are kept apart here.

Experiments:
[1] = tested on: presynaptic α2-adrenergic receptor (guinea-pig ileum); assay: Inhibition of the contraction of the isolated guinea-pig ileum induced by electrical stimulation (presynaptic α2-adrenergic agonist properties); conditions: for pIC50: concentration that reduces by 50% the intensity of the muscle contraction, electrical stimulation
Description: Stimulation of the guinea-pig ileum.
Longitudinal muscle fragments attached to an isometric force indicator are immersed in Tyrode's solution and are stretched with a force of 1 g (G. M. DREW, Brit. J. Pharmacol. 64, (1978), 293-300; M. ANDREJAK et al., Naunyn-Schmiedeberg's Arch. Pharmacol. 314, (1980), 83-87).
Electrical stimulation of the parasympathetic nerves associated with the ileum fragments causes a contraction of the muscle. This contraction is reduced in the presence of a presynaptic α2 -agonist and the magnitude by which the contraction is reduced depends on the concentration of the agonist used. This effect is antagonized by the simultaneous presence of an α2 -antagonist such as α-yohimbine.
The compounds to be studied have been tested at increasing concentrations ranging from 10^-10 to 10^-3 mole/l. The concentration (IC50 in mole/l) that reduces by 50% the intensity of the muscle contraction is determined.
Table I gives the IC50 concentrations (in mole/l) obtained for the compounds of the invention (except for compound 6, for which compound the IC30 concentration is given).

[2] = tested on: male NMRI mice; assay: Toxicity by means of Irwin's test, intraperitoneal; type: in vivo, mouse (NMRI); conditions: death of two out of three animals within 24 hours
Experimental: The toxicity of the compounds according to the present invention has been determined in male NMRI mice by means of Irwin's test (S. IRWIN, Psychopharmacologia, 13, (1968), 222-257). Progressive doses of the compound to be tested are administered intraperitoneally to groups of three mice until the lethal dose is reached (dose which causes the death of two out of three animals within 24 hours).
It can be seen from this Table that the compounds of the invention have a very low toxicity.

[3] = tested on: intraocular pressure of the treated eye; assay: Intraocular pressure variation in awake normotensive rabbits, treated eye; type: in vivo, rabbit (New Zealand White)
Experimental: the 1st column indicates the compound tested,
the 2nd column indicates the concentration of the compound, in percent (in weight per volume),
the 3rd, 4th, 5th, 6th and 7th columns indicate the variation in intraocular pressure (ΔP) expressed in percent, with respect to an animal treated with a collyrium containing no compound to be tested, measured after 30 minutes, 1, 2, 3 or 6 hours respectively.

[4] = tested on: mucous membrane of the treated eye (conjunctivae); assay: Effect on the mucous membrane of the treated eye (hypohemia); type: in vivo, rabbit (New Zealand White)
Description: Hypohemia manifests itself by insufficient blood irrigation of the conjunctiva, which can result in irreversible local ischemias.

[5] = background of the patent, cited from earlier work
[6] = tested on: intraocular pressure of the contralateral eye
Experimental: All the doses tested are administered to three rabbits (weight 2-2.5 kg) of both sexes according to a "cross-over" experimental protocol in which each animal is also used in the control group. […] The intraocular pressure is measured tonometrically with a BIORAD pneumatonograph (DIGILAB MODULAR ONE) after local anesthesia using 2 drops of a 0.4% (in weight per volume) solution of oxybuprocaine hydrochloride.

[7] = tested on: heart rate
Experimental: The compounds to be studied are administered as a solution in 30 microliters of sterile distilled water (collyrium) at concentrations ranging from 0 (reference) to 0.5% (in weight per volume).

[8] = tested on: pupil diameter; assay: Effect on the pupil diameter of the treated eye and of the contralateral eye; conditions: clonidine: ipsilateral eye at 0.1 and 0.5%; compounds of the invention: treated or contralateral eye at doses of Table II
Experimental: The pupil diameters are measured visually at the point of maximal vertical diameter, using a millimetric metal standard.

[9] = ocular or topical use unless stated

CC(C)NC(=N)c1cccc(Cc2c[nH]cn2)c1O [F, 2-hydroxy-3-(1H-imidazol-4-ylmethyl)-N-(1-methylethyl)-benzenecarboximidamide]
pIC50 [1]: 5.19
Lethal dose [2]: 155 mg/kg

CC(c1c[nH]cn1)c1cccc(C(=N)N)c1O (single isomer, unassigned; (+)) [D, (+)-2-hydroxy-3-[1-(1H-imidazol-4-yl)ethyl]-benzenecarboximidamide]
pIC50 [1]: 8.41
ΔP [30 min], variation in intraocular pressure ([3]; 0.01% w/v): -14.1%
ΔP [2 h], variation in intraocular pressure ([3]; 0.01% w/v): -17.7%
ΔP [6 h], variation in intraocular pressure ([3]; 0.01% w/v): -15.1%
Lethal dose [2]: 25 mg/kg

CNC(=N)c1cccc(Cc2c[nH]cn2)c1O [B, 2-hydroxy-3-(1H-imidazol-4-ylmethyl)-N-methyl-benzenecarboximidamide]
pIC50 [1]: 5.60
ΔP [30 min], variation in intraocular pressure ([3]; 0.5% w/v): -5.5%
ΔP [1 h], variation in intraocular pressure ([3]; 0.5% w/v): -10.8%
ΔP [2 h], variation in intraocular pressure ([3]; 0.5% w/v): -13.3%
ΔP [3 h], variation in intraocular pressure ([3]; 0.5% w/v): -12.8%
ΔP [6 h], variation in intraocular pressure ([3]; 0.5% w/v): -7.6%
Lethal dose [2]: 230 mg/kg

CC(c1c[nH]cn1)c1cccc(C(=N)N)c1O (single isomer, unassigned; (-)) [E, (-)-2-hydroxy-3-[1-(1H-imidazol-4-yl)ethyl]-benzenecarboximidamide]
pIC50 [1]: 6.70
ΔP [30 min], variation in intraocular pressure ([3]; 0.5% w/v): -11.6%
ΔP [1 h], variation in intraocular pressure ([3]; 0.5% w/v): -12.6%
ΔP [6 h], variation in intraocular pressure ([3]; 0.5% w/v): -6.6%
Hypohemia of the treated eye ([4]; 0.5%): do not induce hypohemia
Lethal dose [2]: 248 mg/kg

N=C(N)c1cccc(Cc2c[nH]cn2)c1O [A, 2-hydroxy-3-(1H-imidazol-4-ylmethyl)-benzenecarboximidamide]
pIC50 [1]: 7.21
ΔP [30 min], variation in intraocular pressure ([3]; 0.05% w/v): -5.9%
ΔP [2 h], variation in intraocular pressure ([3]; 0.05% w/v): -18.6%
ΔP [6 h], variation in intraocular pressure ([3]; 0.05% w/v): -1.1%
ΔP [30 min], variation in intraocular pressure ([3]; 0.1% w/v): -9.2%
ΔP [2 h], variation in intraocular pressure ([3]; 0.1% w/v): -21.2%
ΔP [6 h], variation in intraocular pressure ([3]; 0.1% w/v): -16.1%
Hypohemia of the treated eye ([4]; 0.1%): do not induce hypohemia
Lethal dose [2]: > 216 mg/kg

CC(=O)Nc1nnc(S(N)(=O)=O)s1 [acetazolamide]
Side-effects (in words) ([5]; carbonic anhydrase inhibitors, systemic administration): depression of the central nervous system, weight loss and, mainly, bone marrow hypofunction

N=C(NN)c1cccc(Cc2c[nH]cn2)c1O [G, 2-hydroxy-3-(1H-imidazol-4-ylmethyl)-benzenecarboximidic acid hydrazide]
IC30, inhibition of the contraction of the guinea-pig ileum ([1]; IC30 printed in the IC50 column): 2500 nM
Lethal dose [2]: 416 mg/kg

N=C(NO)c1cccc(Cc2c[nH]cn2)c1O [C, N,2-dihydroxy-3-(1H-imidazol-4-ylmethyl)-benzenecarboximidamide]
pIC50 [1]: 6.85
Lethal dose [2]: 232 mg/kg

Clc1cccc(Cl)c1N=C1NCCN1 [clonidine]
pIC50 [1]: 7.77
Biphasic effect on intraocular pressure (in words) [3]: initially induces hypertension of the treated eye, which effect increases with the concentration of the product
ΔP [30 min], variation in intraocular pressure ([3]; 0.01% w/v): +8.0%
ΔP [2 h], variation in intraocular pressure ([3]; 0.01% w/v): -8.8%
ΔP [6 h], variation in intraocular pressure ([3]; 0.01% w/v): -9.2%
ΔP [30 min], variation in intraocular pressure ([3]; 0.1% w/v): +23.4%
ΔP [2 h], variation in intraocular pressure ([3]; 0.1% w/v): +36.2%
ΔP [3 h], variation in intraocular pressure ([3]; 0.1% w/v): +11.4%
ΔP [30 min], variation in intraocular pressure ([3]; 0.5% w/v): +31.4%
ΔP [2 h], variation in intraocular pressure ([3]; 0.5% w/v): +39.4%
ΔP [3 h], variation in intraocular pressure ([3]; 0.5% w/v): +8.6%
ΔP in the contralateral eye ([6]; 0.01%, after 2 hours): -9.5%
ΔP in the contralateral eye ([6]; 0.01%, after 6 hours): -9.2%
ΔP in the contralateral eye ([6]; 0.1%, after 2 hours): -10.2%
ΔP in the contralateral eye ([6]; 0.1%, after 6 hours): +2.6%
ΔP in the contralateral eye ([6]; 0.5%, after 2 hours): -26.3%
ΔP in the contralateral eye ([6]; 0.5%, after 6 hours): +15%
Whitening of the conjunctivae ([4]; 0.01%, after 30 minutes): whitening of the conjunctivae is observed after 30 minutes
Whitening of the conjunctivae ([4]; 0.1%, after 1 hour): this effect is still present after 1 hour
Slowing of the heart rate ([7]; 0.01%, after 3 hours): 10.7%
Slowing of the heart rate ([7]; 0.1%, after only 1 hour): 17.9%
Side-effects (in words) [5, 9]: mydriasis, as well as an initial phase of ocular hypertension (biphasic effect)
Change in the pupil diameter / mydriasis (in words) [8]: causes an important mydriasis of the ipsilateral eye

CNCC(O)c1ccc(OC(=O)C(C)(C)C)c(OC(=O)C(C)(C)C)c1 (stereo not shown) [dipivalylepinephrine]
Side-effects (in words) [5, 9]: sensations of burning or irritation
